Data taken from ChEMBL document CHEMBL3885881, “DrugMatrix”.

Organism: Rattus norvegicus
Assay: DrugMatrix - Regimen: Daily Repeat
Assay type: toxicity, organism-based, Sprague-Dawley
Design: regimen Daily Repeat, gender Male, age 6-8 weeks
Settings: in vivo, po, route oral GAVAGE, vehicle 100 % WATER; for ABSOLUTE BASOPHIL / ABSOLUTE EOSINOPHIL / ABSOLUTE LYMPHOCYTE / ABSOLUTE MONOCYTE / ABSOLUTE SEGMENTED NEUTROPHIL / BASOPHIL / EOSINOPHIL / ERYTHROCYTE COUNT / HEMATOCRIT / HEMOGLOBIN / LEUKOCYTE COUNT / LYMPHOCYTE / MEAN CORPUSCULAR HEMOGLOBIN / MEAN CORPUSCULAR HEMOGLOBIN CONCENTRATION / MEAN CORPUSCULAR VOLUME / MONOCYTE / NEUTROPHIL / NUCLEATED RED BLOOD CELLS: tissue Blood; for ALANINE AMINOTRANSFERASE / ALKALINE PHOSPHATASE / ASPARTATE AMINOTRANSFERASE / BLOOD UREA NITROGEN / CARBON DIOXIDE / CHLORIDE / CHOLESTEROL / CREATINE PHOSPHOKINASE / CREATININE / GLUCOSE / LACTATE DEHYDROGENASE / LIPASE / PHOSPHORUS / POTASSIUM / SODIUM / TOTAL BILIRUBIN / TOTAL PROTEIN / URIC ACID: tissue Plasma
[1] = 0 mg/kg, 72 h, dose level Control, time 3 day
[2] = 0 mg/kg, 120 h, dose level Control, time 5 day
[3] = 18 mg/kg, 72 h, dose level Low, time 3 day

CN(C)CCCN1c2ccccc2Sc2ccc(Cl)cc21 [CHLORPROMAZINE]
ABSOLUTE BASOPHIL [1]: 0 CELLS/uL
ABSOLUTE EOSINOPHIL [1]: 108.67 CELLS/uL
ABSOLUTE LYMPHOCYTE [1]: 10696 CELLS/uL
ABSOLUTE MONOCYTE [1]: 216.67 CELLS/uL
ABSOLUTE SEGMENTED NEUTROPHIL [1]: 1045.33 CELLS/uL
BASOPHIL [1]: 0%
EOSINOPHIL [1]: 1%
ERYTHROCYTE COUNT [1]: 5.87 x10E6/uL
HEMATOCRIT [1]: 38.5%
HEMOGLOBIN [1]: 13.6 G/DL
LEUKOCYTE COUNT [1]: 12.07 x10E3/uL
LYMPHOCYTE [1]: 88.33%
MEAN CORPUSCULAR HEMOGLOBIN [1]: 23.47 pg
MEAN CORPUSCULAR HEMOGLOBIN CONCENTRATION [1]: 35.7 G/DL
MEAN CORPUSCULAR VOLUME [1]: 65.63 fL
MONOCYTE [1]: 2%
NEUTROPHIL [1]: 8.67%
NUCLEATED RED BLOOD CELLS [1]: 0 /100WBC
ALANINE AMINOTRANSFERASE [1]: 60.67 u/L
ALKALINE PHOSPHATASE [1]: 377.67 u/L
ASPARTATE AMINOTRANSFERASE [1]: 85.33 u/L
BLOOD UREA NITROGEN [1]: 15 mg/dL
CARBON DIOXIDE [1]: 37 mmol/L
CHLORIDE [1]: 97.67 MEQ/L
CHOLESTEROL [1]: 70.67 mg/dL
CREATINE PHOSPHOKINASE [1]: 361.67 u/L
CREATININE [1]: 0.18 mg/dL
GLUCOSE [1]: 154 mg/dL
LACTATE DEHYDROGENASE [1]: 99 u/L
LIPASE [1]: 12.67 u/L
PHOSPHORUS [1]: 9.53 mg/dL
POTASSIUM [1]: 5.55 MEQ/L
SODIUM [1]: 143.1 MEQ/L
TOTAL BILIRUBIN [1]: 0.2 mg/dL
TOTAL PROTEIN [1]: 5.97 G/DL
URIC ACID [1]: 0.77 mg/dL
ABSOLUTE BASOPHIL [2]: 0 CELLS/uL
ABSOLUTE EOSINOPHIL [2]: 0 CELLS/uL
ABSOLUTE LYMPHOCYTE [2]: 9535 CELLS/uL
ABSOLUTE MONOCYTE [2]: 182 CELLS/uL
ABSOLUTE SEGMENTED NEUTROPHIL [2]: 783 CELLS/uL
BASOPHIL [2]: 0%
EOSINOPHIL [2]: 0%
ERYTHROCYTE COUNT [2]: 5.35 x10E6/uL
HEMATOCRIT [2]: 34.17%
HEMOGLOBIN [2]: 13.17 G/DL
LEUKOCYTE COUNT [2]: 10.5 x10E3/uL
LYMPHOCYTE [2]: 89.67%
MEAN CORPUSCULAR HEMOGLOBIN [2]: 24.67 pg
MEAN CORPUSCULAR HEMOGLOBIN CONCENTRATION [2]: 38.57 G/DL
MEAN CORPUSCULAR VOLUME [2]: 63.9 fL
MONOCYTE [2]: 1.67%
NEUTROPHIL [2]: 8.67%
NUCLEATED RED BLOOD CELLS [2]: 0 /100WBC
ALANINE AMINOTRANSFERASE [2]: 46.67 u/L
ALKALINE PHOSPHATASE [2]: 343.67 u/L
ASPARTATE AMINOTRANSFERASE [2]: 71 u/L
BLOOD UREA NITROGEN [2]: 11.67 mg/dL
CARBON DIOXIDE [2]: 27 mmol/L
CHLORIDE [2]: 105.33 MEQ/L
CHOLESTEROL [2]: 70.67 mg/dL
CREATINE PHOSPHOKINASE [2]: 208.67 u/L
CREATININE [2]: 0.1 mg/dL
GLUCOSE [2]: 161.33 mg/dL
LACTATE DEHYDROGENASE [2]: 58 u/L
LIPASE [2]: 9.33 u/L
PHOSPHORUS [2]: 12.7 mg/dL
POTASSIUM [2]: 5.59 MEQ/L
SODIUM [2]: 147.1 MEQ/L
TOTAL BILIRUBIN [2]: 0.17 mg/dL
TOTAL PROTEIN [2]: 5.97 G/DL
URIC ACID [2]: 0.73 mg/dL
ABSOLUTE BASOPHIL [3]: 0 CELLS/uL
ABSOLUTE EOSINOPHIL [3]: 0 CELLS/uL
ABSOLUTE LYMPHOCYTE [3]: 8093.33 CELLS/uL
ABSOLUTE MONOCYTE [3]: 80.67 CELLS/uL
ABSOLUTE SEGMENTED NEUTROPHIL [3]: 392.67 CELLS/uL
BASOPHIL [3]: 0%
EOSINOPHIL [3]: 0%
ERYTHROCYTE COUNT [3]: 5.16 x10E6/uL
HEMATOCRIT [3]: 34.47%
HEMOGLOBIN [3]: 13.4 G/DL
LEUKOCYTE COUNT [3]: 8.57 x10E3/uL
LYMPHOCYTE [3]: 94.33%
MEAN CORPUSCULAR HEMOGLOBIN [3]: 25.97 pg
MEAN CORPUSCULAR HEMOGLOBIN CONCENTRATION [3]: 38.87 G/DL
MEAN CORPUSCULAR VOLUME [3]: 66.8 fL
MONOCYTE [3]: 1%
NEUTROPHIL [3]: 4.67%
NUCLEATED RED BLOOD CELLS [3]: 0 /100WBC
ALANINE AMINOTRANSFERASE [3]: 60.67 u/L
ALKALINE PHOSPHATASE [3]: 286 u/L
ASPARTATE AMINOTRANSFERASE [3]: 101 u/L
BLOOD UREA NITROGEN [3]: 15 mg/dL
CARBON DIOXIDE [3]: 38 mmol/L
CHLORIDE [3]: 98 MEQ/L
CHOLESTEROL [3]: 65.67 mg/dL
CREATINE PHOSPHOKINASE [3]: 499.33 u/L
CREATININE [3]: 0.32 mg/dL
GLUCOSE [3]: 131 mg/dL
LACTATE DEHYDROGENASE [3]: 79 u/L
LIPASE [3]: 10 u/L
PHOSPHORUS [3]: 8.37 mg/dL
POTASSIUM [3]: 5.57 MEQ/L
SODIUM [3]: 142.3 MEQ/L
TOTAL BILIRUBIN [3]: 0.23 mg/dL
TOTAL PROTEIN [3]: 5.97 G/DL
